{
  "source": "patent US20250230163A1",
  "about": "“SOLID FORMS OF HIV INTEGRASE INHIBITORS” (Gilead Sciences, Inc., priority 2023, published 2025)",
  "key": {"[1]": {"experiment": "Hygroscopicity by dynamic vapor sorption (DVS)", "format": "physicochemical", "settings": "for solid form post DVS experiment: after sorption/desorption cycle up to 95% RH at 25° C.; for water absorbed (dynamic vapor sorption): up to 95% RH at 25° C.", "description": "Hygroscopicity was studied using dynamic vapor sorption (DVS, TA Q5000 SA, TA Instruments, New Castle, DE or DVS, DVS Intrinsic, Surface Measurement Systems, London, UK). A sample (1-20 mg) was placed in an aluminum DVS pan and loaded on the sample side of the twin pan balance. The water sorption and desorption were studied as a function of relative humidity (RH) at 25° C. In 10% RH increments, the relative humidity was increased from 5% RH to 95% RH and then decreased back to 5%. […] Data analysis was performed using Universal Analysis 2000 Version 4.7A (TA Instruments, New Castle, DE) for TA DVS runs and Microsoft Excel for SMS DVS runs."}, "[2]": {"experiment": "Physical form stability on drying under ambient conditions", "format": "physicochemical", "description": "Compound of Formula I, Form II is a metastable methanol solvated phase. It was isolated when compound of Formula I, Form I was slurried in methanol for about 60 days and identified by x-ray of the wet cake. […] Compound of Formula I, Form III was also made when Form II was dried under ambient conditions."}},
  "data": [
    {"compound": "O=C(NCc1c(F)cc(F)cc1F)c1cn2c(c(O)c1=O)C(=O)N1CCCC[C@H]2C1", "note": "[Compound of Formula I, Form IV, (7S)-12-hydroxy-1,11-dioxo-N-(2,4,6-trifluorobenzyl)-1,4,5,6,7,11-hexahydro-3H-2,7-methanopyrido[1,2-a][1,4]diazonine-10-carboxamide]", "values": [
      {"measurement": "solid form post DVS experiment", "setting": "[1]", "result": "not have changed form"},
      {"measurement": "water absorbed (dynamic vapor sorption)", "setting": "[1]", "result": "about 3.5%"}
    ]},
    {"compound": "O=C(NCc1c(F)cc(F)cc1F)c1cn2c(c(O)c1=O)C(=O)N1CCCC[C@H]2C1", "note": "[Compound of Formula I, Form I, (7S)-12-hydroxy-1,11-dioxo-N-(2,4,6-trifluorobenzyl)-1,4,5,6,7,11-hexahydro-3H-2,7-methanopyrido[1,2-a][1,4]diazonine-10-carboxamide]", "values": [
      {"measurement": "solid form post DVS experiment", "setting": "[1]", "result": "not have changed form"},
      {"measurement": "water absorbed (dynamic vapor sorption)", "setting": "[1]", "result": "about 0.097%"}
    ]},
    {"compound": "O=C(NCc1c(F)cc(F)cc1F)c1cn2c(c(O)c1=O)C(=O)N1CCCC[C@H]2C1", "note": "[Compound of Formula I, Form II, (7S)-12-hydroxy-1,11-dioxo-N-(2,4,6-trifluorobenzyl)-1,4,5,6,7,11-hexahydro-3H-2,7-methanopyrido[1,2-a][1,4]diazonine-10-carboxamide]", "values": [
      {"measurement": "form conversion upon drying", "setting": "[2]", "result": "convert to compound of Formula I, Form III"}
    ]},
    {"compound": "O=C(NCc1c(F)cc(F)cc1F)c1cn2c(c(O)c1=O)C(=O)N1CCCC[C@H]2C1", "note": "[Compound of Formula I, Form III, (7S)-12-hydroxy-1,11-dioxo-N-(2,4,6-trifluorobenzyl)-1,4,5,6,7,11-hexahydro-3H-2,7-methanopyrido[1,2-a][1,4]diazonine-10-carboxamide]", "values": [
      {"measurement": "solid form post DVS experiment", "setting": "[1]", "result": "not have changed form"},
      {"measurement": "water absorbed (dynamic vapor sorption)", "setting": "[1]", "result": "about 0.87%"}
    ]}
  ]
}
